Assay [1] addresses T1, Melanocortin receptor 4 (Homo sapiens, UniProt P32245). In words: biochemical. The assay is classed as cell-based, HEK293.
Description: Displacement of [125I]NDP-MSH from human MC4R expressed in HEK293 cells
For assay [2], the target named is T1, Melanocortin receptor 4. In words: cAMP stimulation in HEK293 cells transfected with human MC4R. The format is functional, cell-based.

This note sets out measurements from ChEMBL document CHEMBL1141939, “Structure-activity relationship studies on a series of cyclohexylpiperazines bearing a phanylacetamide as ligands of the human melanocortin-4 receptor” (Bioorg Med Chem Lett, 2005).

T1 sequence (P32245 whole entry): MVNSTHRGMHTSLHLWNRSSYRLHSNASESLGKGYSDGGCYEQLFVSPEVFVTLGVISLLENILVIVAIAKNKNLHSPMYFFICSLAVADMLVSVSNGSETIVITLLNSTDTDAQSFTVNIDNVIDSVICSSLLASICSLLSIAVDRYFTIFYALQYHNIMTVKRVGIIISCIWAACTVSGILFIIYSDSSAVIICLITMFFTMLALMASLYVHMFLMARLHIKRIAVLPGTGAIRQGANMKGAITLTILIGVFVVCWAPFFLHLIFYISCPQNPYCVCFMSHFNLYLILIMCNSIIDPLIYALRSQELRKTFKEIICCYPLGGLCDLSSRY

What is called Ki is a dissociation constant, usually derived from enzyme kinetics or from competition with a known ligand. The low end stands for a stronger hold on the target, the high end for a looser hold on the target. Molecule `O=C(Cc1ccccc1)NCC1(N2CCN(C(=O)[C@@H](Cc3ccc(Cl)cc3)NC(=O)c3cnc4ccccc4c3)CC2)CCCCC1` returned a Ki at Melanocortin receptor 4 [1] of 61 nM. That is a double-digit nanomolar value.
For orientation: EC50 means the concentration that produces a half-maximal response. Low values mean an effect from little substance, high ones a need for much substance. One may read the Emax as the maximal effect, on the per cent scale that the assay sets. As to `O=C(Cc1ccccc1)NCC1(N2CCN(C(=O)[C@@H](Cc3ccc(Cl)cc3)NC(=O)[C@H]3Cc4ccccc4CN3)CC2)CCCCC1`, at Melanocortin receptor 4 [2], the EC50 was found to be 33 nM and the Emax stood at 96%. On Melanocortin receptor 4 [1], this molecule came in with a Ki of 16 nM.
On Melanocortin receptor 4 [1], `CC(C)C(=O)N[C@H](Cc1ccc(Cl)cc1)C(=O)N1CCN(C2(CNC(=O)Cc3ccccc3)CCCCC2)CC1` displayed a Ki of 300 nM.
Regarding `NC(C(=O)N[C@H](Cc1ccc(Cl)cc1)C(=O)N1CCN(C2(CNC(=O)Cc3ccccc3)CCCCC2)CC1)c1ccccc1` (stereo partly specified), at Melanocortin receptor 4 [2], the EC50 worked out at 530 nM and the Emax was determined as 26%. On Melanocortin receptor 4 [1], the affinity corresponds to a Ki of 79 nM.
At Melanocortin receptor 4 [1], `O=C(Cc1ccccc1)NCC1(N2CCN(C(=O)[C@@H](Cc3ccc(Cl)cc3)NC(=O)c3ccccc3)CC2)CCCCC1` yielded a Ki of 84 nM.
At Melanocortin receptor 4 [2], `NC(Cc1ccncc1)C(=O)N[C@H](Cc1ccc(Cl)cc1)C(=O)N1CCN(C2(CNC(=O)Cc3ccccc3)CCCCC2)CC1` (stereo partly specified) yielded an EC50 of 590 nM and an Emax of 54%. At Melanocortin receptor 4 [1], this molecule showed a Ki of 120 nM.
Regarding `O=C(Cc1ccccc1)NCC1(N2CCN(C(=O)[C@@H](Cc3ccc(Cl)cc3)NC(=O)C3NCc4ccccc43)CC2)CCCCC1` (stereo partly specified), at Melanocortin receptor 4 [2], the EC50 was found to be 440 nM and the Emax came out at 43%. For the same molecule, at Melanocortin receptor 4 [1], affinity was put at a Ki of 99 nM.
For `NC1(C(=O)N[C@H](Cc2ccc(Cl)cc2)C(=O)N2CCN(C3(CNC(=O)Cc4ccccc4)CCCCC3)CC2)Cc2ccccc2C1`, at Melanocortin receptor 4 [2], the EC50 came out at 280 nM and the Emax was 49%. This molecule also yielded an inhibition constant Ki at Melanocortin receptor 4 [1] of 140 nM.
For the molecule `NC(CC(=O)N[C@H](Cc1ccc(Cl)cc1)C(=O)N1CCN(C2(CNC(=O)Cc3ccccc3)CCCCC2)CC1)c1ccccc1` (stereo partly specified), at Melanocortin receptor 4 [2], the EC50 turned out to be 270 nM and the Emax came to 61%. This molecule showed a Ki at Melanocortin receptor 4 [1] of 42 nM.
`O=C(Cc1ccccc1)NCC1(N2CCN(C(=O)[C@@H](Cc3ccc(Cl)cc3)NC(=O)C3CC3)CC2)CCCCC1` displayed a Ki on Melanocortin receptor 4 [1] of 130 nM. This counts as sub-micromolar.
Still for that read-out and setting: with `CC(C)CC(=O)N[C@H](Cc1ccc(Cl)cc1)C(=O)N1CCN(C2(CNC(=O)Cc3ccccc3)CCCCC2)CC1` the figure was 270 nM.
`O=C(Cc1ccccc1)NCC1(N2CCN(C(=O)[C@@H](Cc3ccc(Cl)cc3)NC(=O)C3CCC3)CC2)CCCCC1` displayed a Ki on Melanocortin receptor 4 [1] of 140 nM.
For the molecule `O=C(Cc1ccccc1)NCC1(N2CCN(C(=O)[C@@H](Cc3ccc(Cl)cc3)NC(=O)c3ccco3)CC2)CCCCC1`, the Ki on Melanocortin receptor 4 [1] worked out at 100 nM.
As to `O=C(Cc1ccccc1)NCC1(N2CCN(C(=O)[C@@H](Cc3ccc(Cl)cc3)NC(=O)C3CCCC3)CC2)CCCCC1`, at Melanocortin receptor 4 [1], the Ki is 230 nM.
As for `CCC(CC)C(=O)N[C@H](Cc1ccc(Cl)cc1)C(=O)N1CCN(C2(CNC(=O)Cc3ccccc3)CCCCC2)CC1`, the affinity on Melanocortin receptor 4 [1], expressed as Ki, was 1000 nM.
On to `CC(C)COC(=O)N[C@H](Cc1ccc(Cl)cc1)C(=O)N1CCN(C2(CNC(=O)Cc3ccccc3)CCCCC2)CC1`, for which, on Melanocortin receptor 4 [1], the Ki was found to be 280 nM.
Molecule `CCC(=O)N[C@H](Cc1ccc(Cl)cc1)C(=O)N1CCN(C2(CNC(=O)Cc3ccccc3)CCCCC2)CC1` had a Ki on Melanocortin receptor 4 [1] of 160 nM.
At Melanocortin receptor 4 [2], `O=C(Cc1ccccc1)NCC1(N2CCN(C(=O)[C@@H](Cc3ccc(Cl)cc3)NC(=O)C3Cc4ccccc4N3)CC2)CCCCC1` (stereo partly specified) yielded an EC50 of 360 nM and an Emax of 22%. The molecule further had a Ki on Melanocortin receptor 4 [1] of 210 nM.
Taken in the same sequence, the figures for `O=C(Cc1ccccc1)NCC1(N2CCN(C(=O)[C@@H](Cc3ccc(Cl)cc3)NC(=O)CC3Cc4ccccc4CN3)CC2)CCCCC1` (stereo partly specified) were 37 nM, 96% and 16 nM.
As for `CCCC(=O)N[C@H](Cc1ccc(Cl)cc1)C(=O)N1CCN(C2(CNC(=O)Cc3ccccc3)CCCCC2)CC1`, the Ki at Melanocortin receptor 4 [1] was 210 nM.
The molecule `O=C(Cc1ccccc1)NCC1(N2CCN(C(=O)[C@@H](Cc3ccc(Cl)cc3)NC(=O)c3ccc(F)cc3)CC2)CCCCC1` had an inhibition constant (Ki) at Melanocortin receptor 4 [1] of 97 nM.
At Melanocortin receptor 4 [1], `O=C(Cc1ccccc1)NCC1(N2CCN(C(=O)[C@@H](Cc3ccc(Cl)cc3)NC(=O)Cc3ccccc3F)CC2)CCCCC1` had a Ki of 180 nM.
For the molecule `NC1(C(=O)N[C@H](Cc2ccc(Cl)cc2)C(=O)N2CCN(C3(CNC(=O)Cc4ccccc4)CCCCC3)CC2)CCc2ccccc21` (stereo partly specified), at Melanocortin receptor 4 [2], the response was half-maximal at 810 nM (EC50) and the maximal response (Emax) is 51%. In addition, affinity at Melanocortin receptor 4 [1] was put at a Ki of 260 nM.
At Melanocortin receptor 4 [1], `O=C(Cc1ccccc1)NCC1(N2CCN(C(=O)[C@@H](Cc3ccc(Cl)cc3)NC(=O)c3cccnc3)CC2)CCCCC1` registered a Ki of 60 nM.
Still for that read-out and setting: for `CC(=O)N[C@H](Cc1ccc(Cl)cc1)C(=O)N1CCN(C2(CNC(=O)Cc3ccccc3)CCCCC2)CC1` the value was 110 nM; for `O=C(Cc1ccccc1)NCC1(N2CCN(C(=O)[C@@H](Cc3ccc(Cl)cc3)NC(=O)Cc3cccs3)CC2)CCCCC1`, 80 nM.
For `O=C(Cc1ccccc1)NCC1(N2CCN(C(=O)[C@@H](Cc3ccc(Cl)cc3)NC(=O)[C@@H]3Cc4ccccc4CN3)CC2)CCCCC1`, at Melanocortin receptor 4 [2], it took 46 nM to reach a half-maximal effect (EC50) and the Emax stood at 76%. Besides, on Melanocortin receptor 4 [1], affinity was put at a Ki of 11 nM.
Take `CN(C)CC(=O)N[C@H](Cc1ccc(Cl)cc1)C(=O)N1CCN(C2(CNC(=O)Cc3ccccc3)CCCCC2)CC1`: on Melanocortin receptor 4 [2], it took 300 nM to reach a half-maximal effect (EC50) and the Emax was determined as 63%. This molecule also gave a Ki on Melanocortin receptor 4 [1] of 100 nM.
In the same order, the values of `NC(Cc1ccccc1)C(=O)N[C@H](Cc1ccc(Cl)cc1)C(=O)N1CCN(C2(CNC(=O)Cc3ccccc3)CCCCC2)CC1` (stereo partly specified) are 420 nM, 62% and 130 nM.
At Melanocortin receptor 4 [2], `CC(C)(C)CC(=O)N[C@H](Cc1ccc(Cl)cc1)C(=O)N1CCN(C2(CNC(=O)Cc3ccccc3)CCCCC2)CC1` yielded an EC50 of 570 nM and a maximal response (Emax) of 43%. Further, affinity at Melanocortin receptor 4 [1] was put at a Ki of 750 nM.
At Melanocortin receptor 4 [2], `NC1(C(=O)N[C@H](Cc2ccc(Cl)cc2)C(=O)N2CCN(C3(CNC(=O)Cc4ccccc4)CCCCC3)CC2)CCc2ccccc2C1` (stereo partly specified) gave a concentration giving a half-maximal response (EC50) of 160 nM and an Emax of 87%. On Melanocortin receptor 4 [1], this molecule came in with a Ki of 82 nM.
On Melanocortin receptor 4 [1], `CCCCC(=O)N[C@H](Cc1ccc(Cl)cc1)C(=O)N1CCN(C2(CNC(=O)Cc3ccccc3)CCCCC2)CC1` showed a Ki of 150 nM. That is a sub-micromolar value.
In turn, `COCC(=O)N[C@H](Cc1ccc(Cl)cc1)C(=O)N1CCN(C2(CNC(=O)Cc3ccccc3)CCCCC2)CC1` registered an inhibitory constant (Ki) at Melanocortin receptor 4 [1] of 170 nM.
